# Experimental data as given in PMC8956739, “A synthetic lipopeptide targeting top-priority multidrug-resistant Gram-negative pathogens” (Nature Communications, 2022).
# Several values for one entry are separate records, joined by “and”; a condition that tells them apart may be missing. Identical values can stand only once. Residues, ends and D or L forms follow the SMILES beside them.
# Tests used:
# P. aeruginosa ATCC 27853 [1] = test: Neutropenic mouse bloodstream infection model; type: in vivo; conditions: single IV dose 4 mg/kg; for Log10 CFU/mL blood at 4 h, Mean / Δlog10 CFU/mL blood (mean) / Log10 CFU/mL blood at 4 h, single mouse: 4 h; for Δlog10 CFU/mL blood (mean): treated minus control, mean of replicates; for Δlog10 CFU/mL blood (mean) / Log10 CFU/mL blood at 4 h, single mouse / Delta Log10 CFU/mL blood at 4 h, single mouse: 4 mg/kg; for Delta Log10 CFU/mL blood at 4 h, single mouse: treated mouse minus mean of vehicle mice
# Experimental: The experimental methodology for the neutropenic mouse bloodstream infection model was described previously. Briefly, 7-week-old female Swiss mice (22–28 g) were rendered neutropenic by intraperitoneal administration of cyclophosphamide, 4 days (150 mg/kg) and 1 day (100 mg/kg) prior to inoculation. Bloodstream infection was established by intravenous administration of a 50 µL bolus of early log-phase bacterial suspension (4 × 10^8 CFU/mL). Lipopeptide solutions were prepared at 1 mg/mL (free base) in sterile saline. At 2 h after inoculation, mice (n = 3) were injected intravenously with lipopeptide solution at 4 mg/kg (free base) or saline control. At 0 and 4 h after administration, blood was collected, diluted serially in sterile saline, and plated on nutrient agar plates. Agar plates were incubated at 37 °C overnight for bacterial colony counting and the bacterial load in the blood (log10 CFU/mL) in each mouse was calculated. In vivo efficacy was calculated as the difference of the log10 CFU/mL blood values between the treated mice and the saline-treated mice at 4 h post dosing (Δlog10 CFU/mL blood = log10 [treated] CFU/mL blood − log10[control] CFU/mL blood).
# Swiss mice, kidney = test: Nephrotoxicity in mice (kidney histopathology); type: in vivo, mouse; conditions: for Kidney histopathology (SQS Score): 72 mg/kg/d subcutaneously in six divided doses every 2 h, n = 3; for Kidney histopathology, mice with the SQS score: mouse, in vivo
# Experimental: The experimental methodology has been previously reported by our group. Briefly, individual lipopeptide solutions were prepared in sterile saline (6 mg/mL). Swiss mice (female, 7-week-old, 22–28 g) were subcutaneously administered at 12 mg/kg in, 6 doses every 2 h to reach a total dose of 72 mg/kg (n = 3). For high-dose nephrotoxicity experiments, mice were intraperitoneally administered at 20 or 25 mg/kg, in 6 doses every 2 h to reach a total dose of 120 mg/kg (n = 6) or 150 mg/kg (n = 3). At 20 h after the last dose, the right kidney from each mouse was collected and placed in 10% buffered (pH 7.4) formalin (Sigma-Aldrich, Castle Hill, NSW, Australia). The kidneys were subjected to histological examination at the Australian Phenomics Network-Histopathology and Organ Pathology (University of Melbourne, Parkville, VIC, Australia), who was blind to the treatment groups.
# A. baumannii ATCC 19606 = type: cell-based, Acinetobacter baumannii; conditions: ATCC 19606
# Experimental: (§1) MICs were determined in cation-adjusted Mueller–Hinton broth (CaMHB) by the broth micro-dilution method against ATCC strains and clinical isolates. MICs in the presence of Survanta® were determined as described above against P. aeruginosa ATCC 27853. In the 100 μL of fresh CaMHB containing polymyxins, 10% Survanta® (v/v, 2.5 mg/mL phospholipids) was added. MICs in the presence and absence of Survanta® were compared to determine the effect of binding to lung surfactant on the antibacterial activity of polymyxins.
# A. baumannii FADDI-AB030 = type: cell-based, Acinetobacter baumannii; conditions: FADDI-AB030
# Experimental: as §1
# A. baumannii FADDI-AB034 = type: cell-based, Acinetobacter baumannii; conditions: FADDI-AB034
# Experimental: as §1
# P. aeruginosa ATCC 27853 [2] = type: cell-based, Pseudomonas aeruginosa; conditions: ATCC 27853
# Experimental: as §1
# [3] = test system: P. aeruginosa FADDI-PA025; type: cell-based, Pseudomonas aeruginosa; conditions: FADDI-PA025
# Experimental: as §1
# [4] = test system: P. aeruginosa FADDI-PA038; type: cell-based, Pseudomonas aeruginosa; conditions: FADDI-PA038
# Experimental: as §1
# [5] = test system: K. pneumoniae FADDI-KP032; type: cell-based, Klebsiella pneumoniae; conditions: FADDI-KP032
# Experimental: as §1
# [6] = test system: K. pneumoniae FADDI-KP065; type: cell-based, Klebsiella pneumoniae; conditions: FADDI-KP065
# Experimental: as §1
SMILES,"Log10 CFU/mL blood at 4 h, Mean (P. aeruginosa ATCC 27853 [1]) [Log10 CFU/mL blood]",Δlog10 CFU/mL blood (mean) (P. aeruginosa ATCC 27853 [1]) [log10 CFU/mL blood],"Log10 CFU/mL blood at 4 h, single mouse (P. aeruginosa ATCC 27853 [1])","Delta Log10 CFU/mL blood at 4 h, single mouse (P. aeruginosa ATCC 27853 [1])","Kidney histopathology (SQS Score) (Swiss mice, kidney)","Kidney histopathology, mice with the SQS score (Swiss mice, kidney)",MIC A. baumannii ATCC 19606 (A. baumannii ATCC 19606) [µg/mL],MIC A. baumannii FADDI-AB030 (A. baumannii FADDI-AB030) [µg/mL],MIC A. baumannii FADDI-AB034 (A. baumannii FADDI-AB034) [µg/mL],MIC P. aeruginosa ATCC 27853 (P. aeruginosa ATCC 27853 [2]) [µg/mL],MIC P. aeruginosa FADDI-PA025 [3] [µg/mL],MIC P. aeruginosa FADDI-PA038 [4] [µg/mL],MIC K. pneumoniae FADDI-KP032 [5] [µg/mL],MIC K. pneumoniae FADDI-KP065 [6] [µg/mL]
"CCCCCCCC(=O)N[C@@H](CCN)C(=O)N[C@H](C(=O)N[C@@H](CCN)C(=O)N[C@H]1CCNC(=O)[C@H]([C@@H](C)O)NC(=O)[C@H](CCN)NC(=O)[C@H](CCN)NC(=O)[C@H](C(C)C)NC(=O)[C@@H](CC(C)C)NC(=O)[C@H](CCN)NC1=O)[C@@H](C)O [Lipopeptide F225] (HELM PEPTIDE1{[CCCCCCCC(=O)[*:2]].[Dab].T.[Dab].[Dab].[Dab].[dL].V.[Dab].[Dab].T}$PEPTIDE1,PEPTIDE1,5:R3-11:R2$$$V2.0)",4.59,−2.86,4.22 Log10 CFU/mL blood and 4.78 Log10 CFU/mL blood (2×),-3.23 Log10 CFU/mL blood and -2.67 Log10 CFU/mL blood (2×),"0 (SQS 0 = no significant change (overall score, <1))",3/3,0.5,0.25,0.25,1,4,1,<0.125,<0.125
"CCCCCCCC(=O)N[C@@H](CCN)C(=O)N[C@H](C(=O)N[C@@H](CCN)C(=O)N[C@H]1CCNC(=O)[C@H]([C@@H](C)O)NC(=O)[C@H](CCN)NC(=O)[C@H](CCN)NC(=O)[C@H]([C@@H](C)O)NC(=O)[C@@H](CCCC)NC(=O)[C@H](CCN)NC1=O)[C@@H](C)O [Lipopeptide F226] (HELM PEPTIDE1{[CCCCCCCC(=O)[*:2]].[Dab].T.[Dab].[Dab].[Dab].[CCCC[C@@H](N[*:1])C(=O)[*:2]].T.[Dab].[Dab].T}$PEPTIDE1,PEPTIDE1,5:R3-11:R2$$$V2.0)",4.20,−3.24,4.01 Log10 CFU/mL blood and 4.55 Log10 CFU/mL blood and 4.05 Log10 CFU/mL blood,-3.43 Log10 CFU/mL blood and -2.90 Log10 CFU/mL blood and -3.40 Log10 CFU/mL blood,"+1 (SQS + 1 = mild damage (overall score, 1 to <15))",1/3,2,0.5,1,1,16,1,<0.125,<0.125
"CCCCCCCC(=O)N[C@@H](CCN)C(=O)N[C@H](C(=O)N[C@@H](CCN)C(=O)N[C@H]1CCNC(=O)[C@H]([C@@H](C)O)NC(=O)[C@H](CCN)NC(=O)[C@H](CCN)NC(=O)[C@H](CO)NC(=O)[C@@H](CC(C)C)NC(=O)[C@H](CCN)NC1=O)[C@@H](C)O [Lipopeptide F227] (HELM PEPTIDE1{[CCCCCCCC(=O)[*:2]].[Dab].T.[Dab].[Dab].[Dab].[dL].S.[Dab].[Dab].T}$PEPTIDE1,PEPTIDE1,5:R3-11:R2$$$V2.0)",6.47,−1.04,6.74 Log10 CFU/mL blood and 5.57 Log10 CFU/mL blood and 7.10 Log10 CFU/mL blood,-0.77 Log10 CFU/mL blood and -1.95 Log10 CFU/mL blood and -0.41 Log10 CFU/mL blood,"0 (SQS 0 = no significant change (overall score, <1))",3/3,8,4,4,0.5,>32,>32,0.25,0.25
